The source of these data is patent US11866474B2, “Modulating angiogenesis by proteomimetics of vascular endothelial growth factor” (UNIVERSITY OF SOUTH FLORIDA, priority 2021, dated 2024).

For experiment [1], the target named is T1, VEGFR-1 extracellular domain (Met 1-Asn 756) (Homo sapiens, UniProt P17948).
T1 construct: VEGF-1 protein extracellular domain (Met 1-Asn 756); purchased Creative BioMart USA FLT1-3809H
In words: Surface plasmon resonance binding to VEGFR-1 extracellular domain. To be noted: one-to-one binding model. The protocol: (§1) Surface plasmon resonance (SPR) assays were carried out to determine the binding affinities of the VEGF mimic sequences toward the extracellular domains of VEGFR-1 and VEGFR-2 (FIGS. 13 and 14).
(§2) Binding kinetics of VEGF mimics to VEGFR-1 were measured by surface plasmon resonance (SPR) using a Biacore T200 (General Electric Co.). […] protein extracellular domain (Met 1-Asn 756) (FLT1-3809H, Creative BioMart USA) was covalently coupled to CMS chip following manufacturer's instructions. Samples were prepared in RBS-EP+ buffer (pH 7.4) at different concentration and flowed over the sensor chip to interact with the immobilized protein, followed by the running buffer. The dissociation data was collected, and a different concentration was assayed after redundant samples were removed from the protein by treating with KCl (1 M). The final binding kinetics was obtained by fitting using the T200 software with a one-to-one binding model. Binding affinities of mimic sequences to VEGFR-2 were measured using VEGFR-2 extracellular domain (Met 1-Glu 764) (KDR-6966H, Creative BioMart USA) in a similar fashion.
A general note: In SPR one partner is held on a chip, and binding of the other changes the refractive index at the surface.

Experiment [2] deals with T2, VEGFR-2 extracellular domain (Met 1-Glu 764) (Homo sapiens, UniProt P35968).
T2 construct: VEGFR-2 extracellular domain (Met 1-Glu 764); purchased Creative BioMart USA KDR-6966H
The experiment is described as follows: Surface plasmon resonance binding to VEGFR-2 extracellular domain. The note with it: for Binding affinity (Kd) to VEGFR-2 as determined by SPR: extracellular domain, one-to-one binding model. The protocol: as §1, §2

Experiment [3] concerns Akt (P-AKT). The experiment is described as follows: Western blot of Akt phosphorylation in HUVEC lysates. It is filed as cell-based, human. To be noted: with VEGF-A stimulation. The protocol:
(§3) The effect of VEGF-mimicking sequences on VEGF-A-mediated activation of Akt, a key VEGF downstream signal,^68 and VEGFR-2 was then examined by Western blot (FIG. 8). […] However, the activation of the VEGF pathway by V2 and QK is dependent on the presence of VEGF-A (FIG. 8E). […] HUVECs (1×10^6) were starved for 24 h and treated with a V1, V2, V3 and QK in the presence or absence of VEGF-A165 at 37° C. for 24 h. Cells were then lysed with a lysis buffer containing Protease and Phosphatase Inhibitor (Thermo Scientific) to obtain total cellular proteins, and the amount of protein was quantified using the BCA Protein Assay Kit (Thermo Scientific, Waltham, MA). Proteins were then denatured by boiling at 100° C. for 10 min in the sample buffer and separated by electrophoresis on 10% SDS-[…] minigels. Target proteins were transferred to polyvinylidene difluoride membranes and blocked with 5% BSA in TBST solution for 1 h and then washed three times with TBST (5 min each time). […]
(A western blot detects proteins with antibodies after separation by electrophoresis.)

For experiment [4], the target named is T3, VEGFR-2 (Homo sapiens, UniProt P35968).
T3 construct: endogenous in cells; host or cells: HUVEC
The experiment is described as follows: Immunofluorescence binding assay with anti-VEGFR-2 antibody. It is filed as cell-based. The note with it: HUVECs treated with 10 μM, compared to control. The protocol: (§4) On the basis of the assays conducted, the inventors speculated that distinct cell signaling and angiogenic response are due to the sequences V2 and V3 binding to different VEGFR subtypes. To further characterize the binding profiles of V2 and V3 to VEGFR-1 and VEGFR-2, immunofluorescence studies were carried out using HUVECs and antibodies specific to each receptor. Cells treated with V2 and V3 (10 μM) were fixed and treated with anti-VEGFR-1 and anti-VEGFR-2 antibodies, followed by FITC-labeled secondary antibody and a DAPI counterstain. […] HUVEC cells grown in m-Dish 35 mm, high Glass Bottom (#81158 Ibidi) were treated with V2 and V3 overnight at 37° C. Cells were then washed with TBST twice and fixed with 4% formaldehyde solution (Fisher Chemical) for 20 min at room temperature. This was followed by TBST wash twice and blocking with TBST—5% BSA blocking solution for 1 h at room temperature. After washing the cells with TBST three times, the cells were incubated with anti-VEGFR-1 antibody (Proteintech) and anti-VEGFR-2 antibody (Invitrogen) overnight at 4° C. […] A Nikon fluorescence microscope was used for imaging cells and image analysis was done with Image J software (ImageJ 5.53e, National Institute of Health, USA).

For experiment [5], the system named is HUVECs. The experiment is described as follows: Transwell cell migration assay. To be noted: 10 μM, in the presence of VEGF165 (50 ng/mL), 12 h. It is filed as cell-based, human. The source says:
Endothelial cell migration is an essential component of angiogenesis mediated by the VEGF pathway and can be used to assess the effect of drugs on the VEGF pathway. A Transwell migration assay was used to test the effect of the mimic sequences on the migration of human umbilical endothelial cells (HUVECs). […] Given the findings that V2 has a much stronger binding affinity for VEGFR1 than VEGFR2 (FIG. 12), the inventors speculated that this stimulatory effect may be due to its specific binding to VEGFR1, the decoy receptor. It is plausible that inhibition of VEGF-A binding to VEGFR-1 leads to an increased level of VEGF-A to bind and activate VEGFR-2, an indirect activation of the main angiogenic receptor.67 Cell migration assay was performed in triplicates on Transwell permeable support, 8.0 μm pore (Corning, USA). […] Migrated cells at the bottom of the membrane were fixed with 4% paraformaldehyde and stained with Crystal Violet at 37° C. for 20 min and 10 min respectively and counted with Nikon Inverted Microscope ECLIPSE Ti-U.

Experiment [6] concerns HUVECs. In words: Wound healing (scratch-wound motility) assay. Type of experiment: cell-based, human. To be noted: 10 μM, in the presence of VEGF165 (50 ng/mL), 24 h. The protocol:
Wound healing is facilitated by the VEGF pathway's effect on cell migration and proliferation.14 The effect of the helical mimic sequences on cell migration and invasion was tested on HUVECs in the presence of VEGF165 using a scratch-wound motility assay. […] HUVEC cells (10^5) were seeded on a 12 well tissue culture plate and allowed to grow for 12 h. The attached cells were then scratched with a sterile […] pipette tip and treated with mimic sequences (10 μM) and/or VEGF165 (50 ng/mL) in serum free medium. […] The wound widths were measured by ImageJ (version 1.50).

Experiment [7] concerns HUVECs. The experiment is described as follows: Capillary tube formation assay. Type of experiment: cell-based, human. The note with it: 2 μM, in the presence of VEGF165 (50 ng/mL), 24 h. The protocol: The ultimate effect of angiogenesis is the formation of vasculature that can support healing, survival, and proliferation. Next, the inventors used HUVECs to investigate the effect of the AA peptide sequences on the formation of capillary-like tube structures in vitro in the presence of VEGF165. […] Nutrient starved HUVECs, for 24 h in 0.5% FBS (sEBM) endothelial basal medium (EBM), were harvested and resuspended in 10% FBS (mEGM) endothelial growth medium. Cells were then seeded in 48 well plate coated with basement membrane extract (BME). To prepare the plates, Costar48 well culture plates were coated with basement membrane (Corning Matrigel Basement Membrane Matrix LDEV-free, 354234) and incubated for 30 min at 37° C. 5×10^4 cells were seeded in each well and treated with VEGF mimic sequences and/or VEGF165, or left untreated. Formation or lack thereof of tube-like structures was monitored over a 24 h period with a Nikon Inverted Microscope ECLIPSE Ti-U.

For experiment [8], the target named is T4, VEGFR-1 (Homo sapiens, UniProt P17948).
T4 construct: immunofluorescence studies were carried out using HUVECs and antibodies specific to each receptor; endogenous in cells; host or cells: HUVEC
The experiment is described as follows: Immunofluorescence binding assay with anti-VEGFR-1 antibody. Type of experiment: cell-based. To be noted: HUVECs treated with 10 μM, compared to control. The protocol: as §4

Experiment [9] deals with VEGFR-2 (P-VEGFR-2). The experiment is described as follows: Western blot of VEGFR-2 phosphorylation in HUVEC lysates. Type of experiment: cell-based, human. To be noted: with VEGF-A stimulation. The protocol: as §3

T2 sequence (P35968 20-764): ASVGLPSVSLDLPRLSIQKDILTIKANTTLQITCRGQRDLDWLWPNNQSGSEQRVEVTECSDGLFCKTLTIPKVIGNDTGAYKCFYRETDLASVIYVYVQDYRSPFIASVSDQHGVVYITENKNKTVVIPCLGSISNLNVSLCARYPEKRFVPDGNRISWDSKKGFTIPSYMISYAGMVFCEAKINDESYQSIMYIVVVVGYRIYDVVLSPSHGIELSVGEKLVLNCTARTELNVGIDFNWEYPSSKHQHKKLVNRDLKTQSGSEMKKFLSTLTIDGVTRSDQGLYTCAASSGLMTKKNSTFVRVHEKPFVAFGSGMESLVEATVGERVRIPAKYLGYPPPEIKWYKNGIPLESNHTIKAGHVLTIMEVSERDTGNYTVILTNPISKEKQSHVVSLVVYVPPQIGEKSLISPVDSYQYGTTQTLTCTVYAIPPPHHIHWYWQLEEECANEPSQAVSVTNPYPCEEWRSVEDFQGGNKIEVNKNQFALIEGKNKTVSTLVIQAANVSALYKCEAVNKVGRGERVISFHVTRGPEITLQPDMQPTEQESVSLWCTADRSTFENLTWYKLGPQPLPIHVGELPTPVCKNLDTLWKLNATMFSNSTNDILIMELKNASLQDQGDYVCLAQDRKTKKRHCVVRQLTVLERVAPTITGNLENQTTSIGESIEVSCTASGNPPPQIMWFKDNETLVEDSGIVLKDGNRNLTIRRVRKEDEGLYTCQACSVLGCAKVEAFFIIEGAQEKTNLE
T1 sequence (P17948 27-756): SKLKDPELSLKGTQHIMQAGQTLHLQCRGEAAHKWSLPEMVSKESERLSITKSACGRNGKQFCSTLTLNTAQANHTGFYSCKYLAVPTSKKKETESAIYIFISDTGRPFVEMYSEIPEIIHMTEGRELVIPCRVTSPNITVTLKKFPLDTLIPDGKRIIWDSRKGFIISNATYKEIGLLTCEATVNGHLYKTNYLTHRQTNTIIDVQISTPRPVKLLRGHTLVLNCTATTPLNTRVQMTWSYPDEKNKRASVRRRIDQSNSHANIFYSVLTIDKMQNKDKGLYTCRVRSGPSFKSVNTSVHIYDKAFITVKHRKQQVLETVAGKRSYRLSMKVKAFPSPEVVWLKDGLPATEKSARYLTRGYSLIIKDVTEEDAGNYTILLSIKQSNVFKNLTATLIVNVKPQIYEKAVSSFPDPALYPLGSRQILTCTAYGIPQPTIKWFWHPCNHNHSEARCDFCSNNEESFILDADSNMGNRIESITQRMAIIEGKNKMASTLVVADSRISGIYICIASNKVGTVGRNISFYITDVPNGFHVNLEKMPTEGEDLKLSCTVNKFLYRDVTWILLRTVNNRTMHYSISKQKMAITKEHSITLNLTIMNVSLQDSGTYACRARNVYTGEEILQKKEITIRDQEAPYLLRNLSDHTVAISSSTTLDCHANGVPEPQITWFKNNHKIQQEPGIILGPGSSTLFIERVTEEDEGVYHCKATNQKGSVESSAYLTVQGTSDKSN
T3 sequence (P35968 20-1356): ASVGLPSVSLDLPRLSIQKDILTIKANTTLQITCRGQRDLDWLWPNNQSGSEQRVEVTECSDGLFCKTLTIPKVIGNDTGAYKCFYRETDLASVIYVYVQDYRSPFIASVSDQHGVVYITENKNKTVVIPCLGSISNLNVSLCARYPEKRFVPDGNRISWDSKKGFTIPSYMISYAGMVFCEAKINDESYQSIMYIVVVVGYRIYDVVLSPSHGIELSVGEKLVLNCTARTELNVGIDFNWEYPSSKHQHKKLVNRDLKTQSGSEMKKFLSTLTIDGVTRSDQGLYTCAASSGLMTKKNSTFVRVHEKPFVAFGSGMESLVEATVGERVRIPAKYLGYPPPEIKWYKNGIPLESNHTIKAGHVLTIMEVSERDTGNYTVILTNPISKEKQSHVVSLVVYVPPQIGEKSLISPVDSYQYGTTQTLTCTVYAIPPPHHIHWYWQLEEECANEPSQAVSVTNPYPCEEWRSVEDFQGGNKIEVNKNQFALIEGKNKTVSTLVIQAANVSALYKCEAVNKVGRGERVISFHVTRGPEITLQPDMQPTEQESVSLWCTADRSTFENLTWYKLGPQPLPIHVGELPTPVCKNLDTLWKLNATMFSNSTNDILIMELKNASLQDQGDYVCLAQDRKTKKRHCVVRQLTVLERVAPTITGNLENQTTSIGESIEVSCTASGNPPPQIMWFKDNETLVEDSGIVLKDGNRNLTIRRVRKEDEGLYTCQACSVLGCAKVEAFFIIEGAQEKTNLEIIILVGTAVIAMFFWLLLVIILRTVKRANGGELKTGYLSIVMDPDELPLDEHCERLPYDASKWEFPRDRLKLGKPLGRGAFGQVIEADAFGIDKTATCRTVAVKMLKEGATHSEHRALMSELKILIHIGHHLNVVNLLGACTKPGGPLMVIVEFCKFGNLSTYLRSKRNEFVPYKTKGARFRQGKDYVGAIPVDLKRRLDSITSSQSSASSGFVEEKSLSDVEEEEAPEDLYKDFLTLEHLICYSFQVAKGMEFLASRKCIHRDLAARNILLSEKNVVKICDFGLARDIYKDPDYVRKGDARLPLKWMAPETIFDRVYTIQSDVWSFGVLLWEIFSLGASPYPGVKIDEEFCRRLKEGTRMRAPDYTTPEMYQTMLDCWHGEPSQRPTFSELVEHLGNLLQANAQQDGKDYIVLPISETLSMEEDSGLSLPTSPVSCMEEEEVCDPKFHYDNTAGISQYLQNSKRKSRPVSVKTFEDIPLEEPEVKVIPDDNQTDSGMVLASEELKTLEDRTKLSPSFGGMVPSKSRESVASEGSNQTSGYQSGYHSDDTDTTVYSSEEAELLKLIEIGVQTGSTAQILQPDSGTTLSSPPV
T4 sequence (P17948 27-1338): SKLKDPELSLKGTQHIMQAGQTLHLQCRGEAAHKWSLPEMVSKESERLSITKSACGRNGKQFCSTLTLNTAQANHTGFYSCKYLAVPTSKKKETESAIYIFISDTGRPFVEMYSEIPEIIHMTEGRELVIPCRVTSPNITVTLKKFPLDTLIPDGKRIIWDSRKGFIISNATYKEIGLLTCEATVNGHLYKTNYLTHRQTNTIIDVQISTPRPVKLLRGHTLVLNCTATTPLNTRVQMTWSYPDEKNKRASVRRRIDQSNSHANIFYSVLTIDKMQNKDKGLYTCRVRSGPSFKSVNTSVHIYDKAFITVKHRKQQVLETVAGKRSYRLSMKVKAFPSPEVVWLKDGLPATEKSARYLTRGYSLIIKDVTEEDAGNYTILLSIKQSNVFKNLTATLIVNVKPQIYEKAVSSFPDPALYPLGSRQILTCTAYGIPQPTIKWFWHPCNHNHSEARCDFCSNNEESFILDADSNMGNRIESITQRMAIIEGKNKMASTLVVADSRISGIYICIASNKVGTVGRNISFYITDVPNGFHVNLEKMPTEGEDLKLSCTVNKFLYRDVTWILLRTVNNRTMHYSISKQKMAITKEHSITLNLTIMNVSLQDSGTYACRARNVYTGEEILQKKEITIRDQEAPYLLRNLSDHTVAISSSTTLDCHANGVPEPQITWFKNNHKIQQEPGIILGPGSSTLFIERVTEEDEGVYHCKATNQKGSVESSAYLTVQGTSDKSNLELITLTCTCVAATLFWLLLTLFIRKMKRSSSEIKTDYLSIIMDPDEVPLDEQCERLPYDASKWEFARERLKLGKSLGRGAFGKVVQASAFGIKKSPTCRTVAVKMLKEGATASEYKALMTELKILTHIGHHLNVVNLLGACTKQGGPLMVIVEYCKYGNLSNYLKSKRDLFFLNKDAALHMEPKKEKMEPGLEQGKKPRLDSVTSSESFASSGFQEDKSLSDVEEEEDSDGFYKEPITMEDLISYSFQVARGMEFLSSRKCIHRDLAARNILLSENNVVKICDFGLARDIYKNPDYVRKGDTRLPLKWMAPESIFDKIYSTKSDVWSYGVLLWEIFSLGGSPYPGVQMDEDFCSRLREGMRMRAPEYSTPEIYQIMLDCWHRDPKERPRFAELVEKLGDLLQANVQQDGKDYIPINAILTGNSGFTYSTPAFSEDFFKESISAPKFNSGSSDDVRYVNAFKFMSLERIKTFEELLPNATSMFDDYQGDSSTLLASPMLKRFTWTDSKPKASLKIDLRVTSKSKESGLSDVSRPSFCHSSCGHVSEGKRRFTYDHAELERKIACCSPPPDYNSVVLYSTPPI

In the case of `CC(=O)N[C@@H](CCC(=O)O)CN(CC(=O)N[C@@H](CC(C)C)CN(CC(=O)N[C@@H](Cc1ccccc1)CN(CC(=O)N[C@@H](CCC(=O)O)CN(CC(=O)N[C@@H](Cc1ccc(O)cc1)CN(CC(=O)N[C@@H](CCCCN)CN(CC(=O)N[C@@H](Cc1ccc(O)cc1)CN(CC(=O)N[C@@H](C)CN(CC(N)=O)S(C)(=O)=O)S(C)(=O)=O)S(C)(=O)=O)S(=O)(=O)CCN)S(=O)(=O)CC(C)C)S(=O)(=O)CC(C)C)S(=O)(=O)CCN)S(=O)(=O)CCN` [V2], the “Binding affinity (Kd) to VEGFR-1 as determined by SPR” value in experiment [1] is “submicromolar binding affinity”. For the same compound, the “Binding affinity (Kd) to VEGFR-2 as determined by SPR” value in [2] is reported as “good binding affinities”.
Regarding `CC(=O)N[C@@H](CCC(=O)O)CN(CC(=O)N[C@@H](CC(C)C)CN(CC(=O)N[C@@H](Cc1c[nH]c2ccccc12)CN(CC(=O)N[C@@H](CCC(=O)O)CN(CC(=O)N[C@@H](Cc1ccc(O)cc1)CN(CC(=O)N[C@@H](CCCCN)CN(CC(=O)N[C@@H](Cc1ccc(O)cc1)CN(CC(=O)N[C@@H](C)CN(CC(N)=O)S(C)(=O)=O)S(C)(=O)=O)S(C)(=O)=O)S(=O)(=O)CCN)S(=O)(=O)CC(C)C)S(=O)(=O)CC(C)C)S(=O)(=O)CCN)S(=O)(=O)CCN` [V3], the “Binding affinity (Kd) to VEGFR-1 as determined by SPR” value in experiment [1] was “good binding affinities”. Also, the “Inhibition of phosphorylation of Akt at low concentration” value in [3] (100 nM) is “potent inhibition”. In addition, in experiment [3] (0.1, 0.5, 1, 10 μM), the “Phosphorylation of Akt (P-AKT)” value is reported as “dose-dependent inhibition of phosphorylation”. For the same compound, the “Fluorescence with anti-VEGFR-2 antibody” value in experiment [4] is recorded as “significant reduction of fluorescence”. In addition, the “Number of HUVECs migrating (Transwell)” value in [5] is recorded as “significantly lowered”. In experiment [6], the “Cell migration in wound healing assay” value is “virtually completely blocked wound motility”. Further, in experiment [7], the Capillary tube formation entry was “substantial inhibition of capillary tube formation”. In [2] (VEGFR2 over VEGFR1), the “Selectivity for VEGFR2 (SPR binding)” value is listed as “remarkable selectivity”. Also, the “Binding affinity (Kd) to VEGFR-2 as determined by SPR” value in experiment [2] is listed as “submicromolar binding affinity”. Moreover, the “Fluorescence with anti-VEGFR-1 antibody” value in [8] is “almost no effect on intensity of fluorescence”. The “Inhibition of phosphorylation of VEGFR-2 at low concentration” value in [9] (100 nM) is given as “potent inhibition”. In addition, in experiment [9] (0.1, 0.5, 1, 10 μM), the “Phosphorylation of VEGFR-2 (P-VEGFR-2)” value was “dose-dependent inhibition of phosphorylation”.
